Laboratory results published in publication PMC4721923 (PLoS ONE, 2015).
Values joined by “and” are separate entries in the source; they are usually repeats but may differ in a detail not shown here. Equal values may be shown once. Read-outs that look alike come from different tables or passages of the source.

Key:
OCT1 [1] = target: T1, OCT1 (Homo sapiens, UniProt O15245); experiment: Flow cytometric ASP+-uptake inhibition, HEK-OCT1; format: cell-based; settings: HEK-OCT1; 1 μM ASP+; ± SEM (N = 3); read-out: IC50, inhibition of ASP+-uptake
T1 construct: containing the full length SLC22A1 cDNA (NM_003057) encoding the human OCT1 protein; expressed in transfected cells
T1 sequence (O15245 1-554): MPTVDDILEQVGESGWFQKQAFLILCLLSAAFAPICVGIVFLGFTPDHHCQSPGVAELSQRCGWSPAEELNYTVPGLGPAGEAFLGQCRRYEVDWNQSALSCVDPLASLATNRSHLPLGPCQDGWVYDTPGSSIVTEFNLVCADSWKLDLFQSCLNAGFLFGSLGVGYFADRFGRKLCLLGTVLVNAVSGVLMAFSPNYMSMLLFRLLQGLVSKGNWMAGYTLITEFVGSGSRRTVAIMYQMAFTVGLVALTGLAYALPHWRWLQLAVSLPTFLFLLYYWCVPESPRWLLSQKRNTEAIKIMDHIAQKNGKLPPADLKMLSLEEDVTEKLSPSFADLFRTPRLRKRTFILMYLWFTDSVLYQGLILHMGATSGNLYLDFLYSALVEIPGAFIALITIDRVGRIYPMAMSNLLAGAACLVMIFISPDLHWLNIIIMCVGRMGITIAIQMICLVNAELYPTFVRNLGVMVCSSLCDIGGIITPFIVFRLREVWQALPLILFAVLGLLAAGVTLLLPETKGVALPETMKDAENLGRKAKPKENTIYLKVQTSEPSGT
Method: (§1) The previously described fluorescent substrate of organic cation transporters, 4-(4-dimethylaminostyryl)-N-methylpyridinium (ASP^+), was used to determine the function of OCT1 and OCT3 by flow cytometry in the absence and the presence of bendamustine and selected bendamustine esters. HEK293 cells expressing the transporter of interest were trypsinized and washed twice with PBS, prior to re-suspension of 0.5 · 10^6 cells in 500 μL of PBS containing 2% (v/v) FCS. The cells were incubated with ASP^+ (100 μM stock solution in PBS containing 10% DMSO) for 5 minutes, allowing for cellular accumulation, and subsequently analyzed with a FACSCalibur flow cytometer. ASP^+ was excited at 488 nm and the fluorescence was measured using a 530/30 nm and a 585/42 band-pass filter. At least 1 · 10^4 single cells were analyzed by appropriate FSC/SSC gating.
(§2) The cells were pre-incubated with the respective test compound at different concentrations at room temperature for 10 minutes. Afterwards, ASP^+ was added to a final concentration of 1 μM, and the samples were incubated at 37°C in the dark for 5 minutes. Subsequently, the cells were washed, re-suspended in ice-cold PBS/FCS and stored on ice in the dark until measurement.
(§3) The normalized mean fluorescence intensities of the OCT expressing cells, set to 100% in the absence of an inhibitor, were calculated by subtracting the mean fluorescence intensity of unspecific ASP^+ uptake into HEK-Co control cells. The normalized fluorescence intensities in the presence of an inhibitor were plotted against the logarithm of the concentrations of the test compounds to calculate IC50 values. The “log (inhibitor) vs. normalized response-variable slope” equation of GraphPad Prism 5.01 was used for this purpose.

OCT3 [2] = target: T2, OCT3 (Homo sapiens, UniProt O75751); experiment: Flow cytometric ASP+-uptake inhibition, HEK-OCT3; format: cell-based; settings: HEK-OCT3; 1 μM ASP+; ± SEM (N = 3); read-out: IC50, inhibition of ASP+-uptake
T2 construct: expressed in transfected cells; host or cells: HEK293 (HEK-OCT3)
T2 sequence (O75751 1-556): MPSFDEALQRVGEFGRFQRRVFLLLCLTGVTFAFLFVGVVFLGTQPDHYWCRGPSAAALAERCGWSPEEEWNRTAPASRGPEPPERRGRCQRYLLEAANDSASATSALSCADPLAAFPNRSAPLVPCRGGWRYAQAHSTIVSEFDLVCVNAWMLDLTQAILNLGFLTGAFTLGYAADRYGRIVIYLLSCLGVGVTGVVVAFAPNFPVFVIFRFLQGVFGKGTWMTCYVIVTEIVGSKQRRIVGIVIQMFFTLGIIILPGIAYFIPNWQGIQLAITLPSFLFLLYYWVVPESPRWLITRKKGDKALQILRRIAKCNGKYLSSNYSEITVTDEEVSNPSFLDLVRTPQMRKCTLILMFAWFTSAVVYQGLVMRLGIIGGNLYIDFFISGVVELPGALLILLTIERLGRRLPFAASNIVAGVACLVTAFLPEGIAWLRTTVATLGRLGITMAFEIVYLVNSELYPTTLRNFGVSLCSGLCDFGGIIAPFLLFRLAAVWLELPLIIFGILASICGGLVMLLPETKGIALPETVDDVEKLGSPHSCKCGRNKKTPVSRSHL
Method: as §1, §2, §3

OCT1 [3] = target: T1, OCT1; experiment: Confocal laser scanning microscopy of ASP+ uptake, HEK-OCT1; format: cell-based; settings: compound 5 15 μM; TPA 200 μM; ASP+ 1 μM
Method: (§4) HEK-Co, HEK-OCT1 and HEK-OCT3 cells were seeded into 8-well μ-Slides (Ibidi, Munich, Germany) (2 · 10^4 cells/well) and allowed to attach for 48 hours. Prior to the staining procedure, the medium was replaced by PBS and the DNA probe Draq5 (5 μM) (Biostatus, Shepshed, UK) was added to each well. […] Subsequently, ASP^+ was added to reach a concentration of 1 μM, and the cells were incubated for 5 minutes in the dark. Imaging was performed with an Axiovert 200 M confocal microscope coupled to a Zeiss LSM 510 scanning device (Carl Zeiss, Oberkochen, Germany) using a Plan-Apochromat 63x/1.40 oil immersion objective. Draq5 was excited at 633 nm and fluorescence was detected using a 650 nm long-pass filter, ASP^+ was excited at 488 nm and detected using a 565/35 nm band-pass filter.

OCT3 [4] = target: T2, OCT3; experiment: Confocal laser scanning microscopy of ASP+ uptake, HEK-OCT3; format: cell-based; settings: compound 5 15 μM; TPA 200 μM; ASP+ 1 μM
Method: as §4

OCT1 [5] = target: T1, OCT1; set-up: method as in PMID 15389554; settings: microtiter assay; cited from earlier work
OCT3 [6] = system: OCT3; set-up: method as in PMID 23982114; settings: microtiter assay; cited from earlier work
OCT1 [7] = settings: cited from earlier work
OCT3 [8] = system: OCT3; set-up: method as in PMID 23506881; settings: cited from earlier work

## CCCCC[N+](CCCCC)(CCCCC)CCCCC [TPA, tetrapentyl ammonium, reference compound]
OCT1 [1]
  IC50: 6.04 µM and 6 µM
OCT3 [2]
  IC50: 19.9 ± 2.2 µM
OCT1 [3]
  effect on OCT1 activity (ASP+ uptake, imaging): inhibited
OCT3 [4]
  effect on OCT3 activity (ASP+ uptake, imaging): inhibited
OCT1 [5]
  IC50: 7.9 µM
OCT3 [6]
  IC50: 28 µM

## N.N.[Cl][Pt][Cl] [cisplatin]
OCT1 [7]
  IC50: > 100 µM

## O=C1c2c(O)ccc(O)c2C(=O)c2c(NCCNCCO)ccc(NCCNCCO)c21 [mitoxantrone]
OCT3 [8]
  IC50: 440 µM
